In patent US20240246931A1, “COMPOUNDS AS PD1/PD-L1 INHIBITORS AND METHODS THEREOF” (JUBILANT PRODEL LLC, priority 2021, published 2024):

Target: T1, PD-1/PD-L1 interaction (Homo sapiens, UniProt Q9NZQ7)
T1 construct: purchased CisBio 63ADK000CPAPEG
Assay: PD-1/PD-L1 HTRF binding assay (CisBio kit)
Details: HTRF PD1/PD-L1 inhibition assay
Experimental: PD-L1 Enzyme Assay: Homogenous Time-Resolved Fluorescence (HTRF) Binding Assay
All binding studies were performed using PD-1/PD-L1 Binding Assay Kit from CisBio (Catalog #63ADK000CPAPEG), according to the manufacturer's protocol. The interaction between Tag1-PD-1 and […] was detected by anti-Tag1-Eu^3+ (HTRF donor) and anti-Tag2-XL665 (HTRF acceptor). When the donor and acceptor antibodies were brought to close proximity due to PD-1 and PD-L1 binding, excitation of the donor antibody triggered fluorescent resonance energy transfer (FRET) towards the acceptor antibody, which in turn emitted specifically at 665 nm. This specific signal is positively proportional to PD-1/PD-L1 interaction. The compounds blocking PD-1/PD-L1 interaction will cause a reduction in HTRF signal. The necessary reagents were mixed in the following order: 2 μL compounds (or diluents buffer), 4 μL PD-L1 protein, 4 μL PD-1 protein. After an incubation of 15 minutes, 5 μL of anti-Tag1-Eu^3+ and 5 μL of anti-Tag2-XL665 were added. The plate was sealed and incubated at room temperature for 1 h. The fluorescence emission was read at two different wavelengths (665 nm and 620 nm) on a BMG PheraStar® multi-plate reader.
Results were calculated from the 665 nm and 620 nm fluorescence signal and expressed in HTRF ratio=(665 nm/620 nm)×10^4.
Compounds having IC50<100 nM are designated as “A”; 100-500 nM are designated as “B”; and >500 nM are designated as “C” respectively.

T1 sequence (Q9NZQ7 19-238 limits assumed): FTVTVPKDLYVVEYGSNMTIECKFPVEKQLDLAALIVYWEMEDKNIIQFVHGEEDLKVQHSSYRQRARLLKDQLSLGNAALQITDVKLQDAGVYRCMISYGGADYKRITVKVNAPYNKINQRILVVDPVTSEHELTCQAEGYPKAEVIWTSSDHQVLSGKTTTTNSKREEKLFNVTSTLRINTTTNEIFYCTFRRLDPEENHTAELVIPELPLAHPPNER

Compound | IC50
Cc1c(COc2cc(OCc3cncc(C#N)c3)c(CN3CCCCC3(CO)CO)c3c2CCC3)cccc1-c1ccccc1 [Example 22, 5-(((4-((2,2-bis(hydroxymethyl)piperidin-1-yl)methyl)-7-((2-methyl-[1,1′-biphenyl]-3-yl)methoxy)-2,3-dihydro-1H-inden-5-yl)oxy)methyl)nicotinonitrile 2,2,2-trifluoroacetate] | < 100 nM
Cc1c(COc2cc(OCCCCF)c(CN3CC[C@H]3CO)c3c2CCC3)cccc1-c1ccccc1 [Example 33, (S)-(1-((5-(4-fluorobutoxy)-7-((2-methyl-[1,1′-biphenyl]-3-yl)methoxy)-2,3-dihydro-1H-inden-4-yl)methyl)azetidin-2-yl)methanol] | 100 to 500 nM
N#Cc1cccc(COc2cc(OCc3cccc(-c4ccccc4)c3C#N)c3c(c2CN2CCCC4CC42CO)CCC3)c1 (stereo not drawn) [Example 36, 3-(((6-((3-cyanobenzyl)oxy)-7-((1-(hydroxymethyl)-2-azabicyclo[4.1.0]heptan-2-yl)methyl)-2,3-dihydro-1H-inden-4-yl)oxy)methyl)-[1,1′-biphenyl]-2-carbonitrile] | 100 to 500 nM
Cc1c(COc2cc(OCc3cnn(C)c3)c(CN3CCCC[C@H]3CO)c3c2CCC3)cccc1-c1ccccc1 [Example 39, (S)-(1-((5-((1-methyl-1H-pyrazol-4-yl)methoxy)-7-((2-methyl-[1,1′-biphenyl]-3-yl)methoxy)-2,3-dihydro-1H-inden-4-yl)methyl)piperidin-2-yl)methanol] | 100 to 500 nM
Cc1c(COc2cc(OCc3cscn3)c(CN3CCC3CO)c3c2CCC3)cccc1-c1ccccc1 (stereo not drawn) [Example 40, (1-((7-((2-methyl-[1,1′-biphenyl]-3-yl)methoxy)-5-(thiazol-4-ylmethoxy)-2,3-dihydro-1H-inden-4-yl)methyl)azetidin-2-yl)methanol] | 100 to 500 nM
Cc1c(COc2cc(OCc3cn(C)cn3)c(CN3CCC3CO)c3c2CCC3)cccc1-c1ccccc1 (stereo not drawn) [Example 41, (1-((5-((1-methyl-1H-imidazol-4-yl)methoxy)-7-((2-methyl-[1,1′-biphenyl]-3-yl)methoxy)-2,3-dihydro-1H-inden-4-yl)methyl)azetidin-2-yl)methanol] | 100 to 500 nM
Cc1c(COc2cc(OCc3cncnc3)c(CN3CCC3CO)c3c2CCC3)cccc1-c1ccccc1 (stereo not drawn) [Example 42, (1-((7-((2-methyl-[1,1′-biphenyl]-3-yl)methoxy)-5-(pyrimidin-5-ylmethoxy)-2,3-dihydro-1H-inden-4-yl)methyl)azetidin-2-yl)methanol] | < 100 nM
Cc1c(COc2cc(OCc3cocn3)c(CN3CCC3CO)c3c2CCC3)cccc1-c1ccccc1 (stereo not drawn) [Example 43, (1-((7-((2-methyl-[1,1′-biphenyl]-3-yl)methoxy)-5-(oxazol-4-ylmethoxy)-2,3-dihydro-1H-inden-4-yl)methyl)azetidin-2-yl)methanol] | 100 to 500 nM
Cc1c(COc2cc(OCc3cc(C#N)c[n+]([O-])c3)c(CN3CCCC[C@H]3CO)c3c2CCC3)cccc1-c1ccccc1 [Example 45, (S)-3-cyano-5-(((4-((2-(hydroxymethyl)piperidin-1-yl)methyl)-7-((2-methyl-[1,1′-biphenyl]-3-yl)methoxy)-2,3-dihydro-1H-inden-5-yl)oxy)methyl)pyridine 1-oxide] | < 100 nM
Cc1c(COc2cc(OCc3cncc(C#N)c3)c(C(=O)NC3CCN(C)CC3)c3c2CCC3)cccc1-c1ccccc1 [Example 49, 5-((5-cyanopyridin-3-yl)methoxy)-7-((2-methyl-[1,1′-biphenyl]-3-yl)methoxy)-N-(1-methylpiperidin-4-yl)-2,3-dihydro-1H-indene-4-carboxamide] | < 100 nM
Cc1c(COc2cc(OCc3cncc(C#N)c3)c(C(=O)N3CCC[C@H]3CO)c3c2CCC3)cccc1-c1ccccc1 [Example 50, (S)-5-(((4-(2-(hydroxymethyl)pyrrolidine-1-carbonyl)-7-((2-methyl-[1,1′-biphenyl]-3-yl)methoxy)-2,3-dihydro-1H-inden-5-yl)oxy)methyl)nicotinonitrile] | 100 to 500 nM
Cc1c(COc2cc(OCc3cncc(C#N)c3)c(C(=O)N3CC[C@H](CO)C3)c3c2CCC3)cccc1-c1ccccc1 [Example 51, (S)-5-(((4-(3-(hydroxymethyl)pyrrolidine-1-carbonyl)-7-((2-methyl-[1,1′-biphenyl]-3-yl)methoxy)-2,3-dihydro-1H-inden-5-yl)oxy)methyl)nicotinonitrile] | 100 to 500 nM

Other lines, results leading:

IC50 | Compound
100 to 500 nM | Cc1c(COc2cc(OCc3cncc(C#N)c3)c(CN3CCCC[C@H]3CO)c3c2CCC3)cccc1-c1ccc(F)cc1 [Example 46, (S)-5-(((7-((4′-fluoro-2-methyl-[1,1′-biphenyl]-3-yl)methoxy)-4-((2-(hydroxymethyl)piperidin-1-yl)methyl)-2,3-dihydro-1H-inden-5-yl)oxy)methyl)nicotinonitrile]
100 to 500 nM | Cc1c(COc2cc(OCc3cncc(C#N)c3)c(CN3CC4(CC4)C[C@H]3CO)c3c2CCC3)cccc1-c1ccc(F)cc1 [Example 47, (S)-5-(((7-((4′-fluoro-2-methyl-[1,1′-biphenyl]-3-yl)methoxy)-4-((6-(hydroxymethyl)-5-azaspiro[2.4]heptan-5-yl)methyl)-2,3-dihydro-1H-inden-5-yl)oxy)methyl)nicotinonitrile]
100 to 500 nM | Cc1c(COc2cc(OCc3cncc(C#N)c3)c(CN3CCC[C@H]3CO)c3c2CCC3)cccc1-c1ccc(F)cc1 [Example 48, (S)-5-(((7-((4′-fluoro-2-methyl-[1,1′-biphenyl]-3-yl)methoxy)-4-((2-(hydroxymethyl)pyrrolidin-1-yl)methyl)-2,3-dihydro-1H-inden-5-yl)oxy)methyl)nicotinonitrile]
< 100 nM | CC(=O)NCC1CCCN1Cc1c(OCc2cncc(C#N)c2)cc(OCc2cccc(-c3ccccc3)c2C)c2c1CCC2 (stereo not drawn) [Example 52, N-((1-((5-((5-cyanopyridin-3-yl)methoxy)-7-((2-methyl-[1,1′-biphenyl]-3-yl)methoxy)-2,3-dihydro-1H-inden-4-yl)methyl)pyrrolidin-2-yl)methyl)acetamide]
< 100 nM | Cc1c(COc2cc(OCc3cncc(C#N)c3)c(CN3CCCC3CN)c3c2CCC3)cccc1-c1ccccc1 (stereo not drawn) [Example 53, 5-(((4-((2-(aminomethyl)pyrrolidin-1-yl)methyl)-7-((2-methyl-[1,1′-biphenyl]-3-yl)methoxy)-2,3-dihydro-1H-inden-5-yl)oxy)methyl)nicotinonitrile]
> 500 nM | Cc1c(Br)cccc1COc1cc(OCc2cncc(C#N)c2)c(CN2CCC2CO)c2c1CCC2 (stereo not drawn) [Example 54, 5-(((7-((3-bromo-2-methylbenzyl)oxy)-4-((2-(hydroxymethyl)azetidin-1-yl)methyl)-2,3-dihydro-1H-inden-5-yl)oxy)methyl)nicotinonitrile]
100 to 500 nM | Cc1c(COc2cc(OCc3cncc(C#N)c3)c(CN3CCC3CO)c3c2CCC3)cccc1-c1ccc(O)cc1 (stereo not drawn) [Example 55, 5-(((7-((4′-hydroxy-2-methyl-[1,1′-biphenyl]-3-yl)methoxy)-4-((2-(hydroxymethyl)azetidin-1-yl)methyl)-2,3-dihydro-1H-inden-5-yl)oxy)methyl)nicotinonitrile]
100 to 500 nM | Cc1ccc(F)c(-c2cccc(COc3cc(OCc4cncc(C#N)c4)c(CN4CCC4CO)c4c3CCC4)c2C)c1 (stereo not drawn) [Example 56, 5-(((7-((2′-fluoro-2,5′-dimethyl-[1,1′-biphenyl]-3-yl)methoxy)-4-((2-(hydroxymethyl)azetidin-1-yl)methyl)-2,3-dihydro-1H-inden-5-yl)oxy)methyl)nicotinonitrile]
> 500 nM | Cc1c(COc2cc(OCc3cncc(C#N)c3)c(CN3CCC3CO)c3c2CCC3)cccc1-c1cn[nH]c1 (stereo not drawn) [Example 57, 5-(((4-((2-(hydroxymethyl)azetidin-1-yl)methyl)-7-((2-methyl-3-(1H-pyrazol-4-yl)benzyl)oxy)-2,3-dihydro-1H-inden-5-yl)oxy)methyl)nicotinonitrile]
> 500 nM | COc1ccc(-c2cccc(COc3cc(OCc4cncc(C#N)c4)c(CN4CCC4CO)c4c3CCC4)c2C)c(C)c1 (stereo not drawn) [Example 58, 5-(((4-((2-(hydroxymethyl)azetidin-1-yl)methyl)-7-((4′-methoxy-2,2′-dimethyl-[1,1′-biphenyl]-3-yl)methoxy)-2,3-dihydro-1H-inden-5-yl)oxy)methyl)nicotinonitrile]
> 500 nM | Cc1c(COc2cc(OCc3cncc(C#N)c3)c(CN3CCC3CO)c3c2CCC3)cccc1-c1cncnc1 (stereo not drawn) [Example 59, 5-(((4-((2-(hydroxymethyl)azetidin-1-yl)methyl)-7-((2-methyl-3-(pyrimidin-5-yl)benzyl)oxy)-2,3-dihydro-1H-inden-5-yl)oxy)methyl)nicotinonitrile]
100 to 500 nM | Cc1c(COc2cc(OCc3cncc(C#N)c3)c(CN3CCC3CO)c3c2CCC3)cccc1-c1ccccc1C(F)(F)F (stereo not drawn) [Example 60, 5-(((4-((2-(hydroxymethyl)azetidin-1-yl)methyl)-7-((2-methyl-2′-(trifluoromethyl)-[1,1′-biphenyl]-3-yl)methoxy)-2,3-dihydro-1H-inden-5-yl)oxy)methyl)nicotinonitrile]
